Measurements published in ChEMBL document CHEMBL4190307, “Design, synthesis and biological evaluation of novel coumarin-N-benzyl pyridinium hybrids as multi-target agents for the treatment of Alzheimer's disease” (Eur J Med Chem, 2017).
Calls of active or inactive are those of the source. The calls are words filed in the database; no cut-off is given here.

Assays:
Acetylcholinesterase [1] = target: Acetylcholinesterase (Homo sapiens, UniProt P22303); assay: Inhibition of human AChE using acetylthiocholine iodide as substrate preincubated for 6 mins followed by substrate addition measured up to 180 secs by Ellman's method
PC-12 = assay: Cytotoxicity against rat PC12 cells assessed as reduction in cell viability at 100 uM after 24 hrs by MTT assay relative to control; assay type: cell-based; details: pc-12, 24 h
[2] = Selectivity index, ratio of IC50 for equine serum BuChE to IC50 for electric eel AChE
Cholinesterase [3] = target: Cholinesterase (Homo sapiens, UniProt P06276)
Description: Inhibition of human serum BuChE using S-butyrylthiocholine iodide as substrate preincubated for 6 mins followed by substrate addition measured up to 180 secs by Ellman's method

Homo sapiens [4] = species on record: Homo sapiens; assay: Selectivity index, ratio of IC50 for recombinant human MAOA to IC50 for recombinant human MAOB
Homo sapiens [5] = species on record: Homo sapiens; assay: Selectivity index, ratio of IC50 for human serum BuChE to IC50 for human AChE
[6] = target: Amyloid-beta precursor protein (Homo sapiens) (UniProt P05067); assay: Inhibition of self-induced amyloid beta (1 to 42) (unknown origin) aggregation at 20 uM after 46 to 48 hrs by thioflavin T-based fluorescence assay relative to control
Acetylcholinesterase [7] = target: Acetylcholinesterase (Electrophorus electricus, UniProt O42275); assay: Inhibition of electric eel AChE using acetylthiocholine iodide as substrate preincubated for 6 mins followed by substrate addition measured up to 180 secs by Ellman's method
Cholinesterase [8] = target: Cholinesterase (Equus caballus, UniProt P81908); assay: Inhibition of equine serum BuChE using S-butyrylthiocholine iodide as substrate preincubated for 6 mins followed by substrate addition measured up to 180 secs by Ellman's method
[9] = target: T1, Amine oxidase [flavin-containing] B (Homo sapiens, UniProt P27338)
T1 sequence (P27338 whole entry): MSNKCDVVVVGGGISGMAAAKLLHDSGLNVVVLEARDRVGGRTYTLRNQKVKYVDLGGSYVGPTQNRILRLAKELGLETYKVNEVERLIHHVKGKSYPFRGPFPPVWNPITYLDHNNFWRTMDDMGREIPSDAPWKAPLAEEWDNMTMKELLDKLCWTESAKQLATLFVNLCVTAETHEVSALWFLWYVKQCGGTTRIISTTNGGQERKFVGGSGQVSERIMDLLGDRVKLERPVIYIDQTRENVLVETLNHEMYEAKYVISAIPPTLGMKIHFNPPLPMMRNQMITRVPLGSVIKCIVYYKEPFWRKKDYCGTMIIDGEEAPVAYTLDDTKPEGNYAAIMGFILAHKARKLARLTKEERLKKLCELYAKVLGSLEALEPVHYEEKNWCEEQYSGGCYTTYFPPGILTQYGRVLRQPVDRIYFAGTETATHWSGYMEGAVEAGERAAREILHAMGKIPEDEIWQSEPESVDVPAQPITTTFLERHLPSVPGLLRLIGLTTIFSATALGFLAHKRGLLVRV
Description: Inhibition of recombinant human MAOB using p-tyramine as substrate after 15 mins by Amplex Red dye-based fluorometric method

[10] = target: T2, Amine oxidase [flavin-containing] A (Homo sapiens, UniProt P21397); assay: Inhibition of recombinant human MAOA at 10 uM using p-tyramine as substrate after 15 mins by resorufin dye-based fluorometric method relative to control; details: 0.25 h
T2 sequence (P21397 whole entry): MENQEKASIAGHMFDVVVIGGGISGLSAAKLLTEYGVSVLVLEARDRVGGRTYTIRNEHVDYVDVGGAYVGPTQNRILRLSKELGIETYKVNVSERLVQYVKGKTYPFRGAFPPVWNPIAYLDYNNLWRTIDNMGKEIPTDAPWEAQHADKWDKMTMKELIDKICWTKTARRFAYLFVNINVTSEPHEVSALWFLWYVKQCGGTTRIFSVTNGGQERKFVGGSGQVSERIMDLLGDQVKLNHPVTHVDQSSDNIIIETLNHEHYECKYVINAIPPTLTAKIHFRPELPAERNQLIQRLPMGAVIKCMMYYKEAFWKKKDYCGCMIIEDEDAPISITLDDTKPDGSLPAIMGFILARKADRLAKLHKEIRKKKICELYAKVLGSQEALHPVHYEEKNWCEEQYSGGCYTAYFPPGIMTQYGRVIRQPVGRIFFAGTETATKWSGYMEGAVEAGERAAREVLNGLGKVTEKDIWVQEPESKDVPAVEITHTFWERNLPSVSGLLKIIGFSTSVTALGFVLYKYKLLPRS

[11] = target: T1, Amine oxidase [flavin-containing] B; assay: Reversible inhibition of recombinant human MAO-B assessed as enzyme activity recovery at 100 times IC50 using p-tyramine as substrate preincubated for 30 mins followed by 100 fold compound dilution by Amplex Red dye-based fluorometric method relative to control; design: scale not given: the % may be the effect or the level left
[12] = target: Acetylcholinesterase (Electrophorus electricus) (UniProt O42275); assay: Mixed type inhibition of electric eel AChE up to 80 nM using acetylthiocholine iodide as substrate preincubated for 6 mins followed by substrate addition measured up to 180 secs by Lineweaver-burk plot method
[13] = target: T1, Amine oxidase [flavin-containing] B; assay: Reversible inhibition of recombinant human MAO-B assessed as enzyme activity recovery at 10 times IC50 using p-tyramine as substrate preincubated for 30 mins followed by 100 fold compound dilution by Amplex Red dye-based fluorometric method relative to control; design: scale not given: the % may be the effect or the level left
[14] = target: T1, Amine oxidase [flavin-containing] B; assay: Competitive inhibition of recombinant human MAOB up to 3 uM using p-tyramine as substrate after 15 mins by Lineweaver-burk plot method; details: 0.25 h
[15] = target: T2, Amine oxidase [flavin-containing] A; assay: Inhibition of recombinant human MAOA using p-tyramine as substrate after 15 mins by Amplex Red dye-based fluorometric method
[16] = target: T1, Amine oxidase [flavin-containing] B; assay: Inhibition of recombinant human MAOB at 10 uM using p-tyramine as substrate after 15 mins by resorufin dye-based fluorometric method relative to control; details: 0.25 h
[17] = target: Acetylcholinesterase (Electrophorus electricus) (UniProt O42275); assay: Potency index, ratio of IC50 for donepezil to IC50 for test compound for inhibition of electric eel AChE using acetylthiocholine iodide as substrate preincubated for 6 mins followed by substrate addition measured up to 180 secs by Ellman's method

Chain of Cholinesterase (Equus caballus, UniProt P81908) (P81908 whole entry): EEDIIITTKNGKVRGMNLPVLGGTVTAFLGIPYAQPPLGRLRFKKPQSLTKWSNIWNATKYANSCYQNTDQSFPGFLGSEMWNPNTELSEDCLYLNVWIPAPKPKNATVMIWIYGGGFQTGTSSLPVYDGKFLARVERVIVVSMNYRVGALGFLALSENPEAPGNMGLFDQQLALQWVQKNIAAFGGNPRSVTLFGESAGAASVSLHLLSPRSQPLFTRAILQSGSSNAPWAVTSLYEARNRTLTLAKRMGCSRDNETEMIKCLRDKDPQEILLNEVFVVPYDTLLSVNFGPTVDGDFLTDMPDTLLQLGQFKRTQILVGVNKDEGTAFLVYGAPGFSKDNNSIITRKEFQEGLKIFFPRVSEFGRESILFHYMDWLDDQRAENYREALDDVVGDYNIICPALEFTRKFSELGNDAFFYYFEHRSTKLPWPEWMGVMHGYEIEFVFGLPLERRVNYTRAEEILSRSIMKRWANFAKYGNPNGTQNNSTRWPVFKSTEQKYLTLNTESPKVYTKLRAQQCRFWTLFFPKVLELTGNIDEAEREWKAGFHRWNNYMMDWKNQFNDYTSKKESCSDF
Chain of Amyloid-beta precursor protein (Homo sapiens) (P05067 whole entry): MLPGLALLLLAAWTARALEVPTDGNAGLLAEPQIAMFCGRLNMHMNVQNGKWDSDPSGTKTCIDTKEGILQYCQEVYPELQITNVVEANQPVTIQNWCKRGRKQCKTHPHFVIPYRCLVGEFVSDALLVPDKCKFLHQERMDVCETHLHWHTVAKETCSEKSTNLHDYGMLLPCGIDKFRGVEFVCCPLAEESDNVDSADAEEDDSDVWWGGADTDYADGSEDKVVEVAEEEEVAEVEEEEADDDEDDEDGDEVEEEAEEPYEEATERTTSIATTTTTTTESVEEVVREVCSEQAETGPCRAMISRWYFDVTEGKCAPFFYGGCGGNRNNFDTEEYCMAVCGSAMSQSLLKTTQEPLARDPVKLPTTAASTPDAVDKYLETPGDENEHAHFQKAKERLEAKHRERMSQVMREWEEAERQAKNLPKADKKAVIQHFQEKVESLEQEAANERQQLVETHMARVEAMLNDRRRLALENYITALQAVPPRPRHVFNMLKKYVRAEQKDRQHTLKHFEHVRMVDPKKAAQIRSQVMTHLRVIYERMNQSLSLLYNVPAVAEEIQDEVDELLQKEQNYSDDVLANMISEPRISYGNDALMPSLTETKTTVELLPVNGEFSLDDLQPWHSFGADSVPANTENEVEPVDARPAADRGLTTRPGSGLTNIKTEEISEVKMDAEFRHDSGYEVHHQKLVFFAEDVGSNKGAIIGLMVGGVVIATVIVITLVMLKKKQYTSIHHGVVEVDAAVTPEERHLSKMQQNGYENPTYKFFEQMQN
Chain of Acetylcholinesterase (Homo sapiens, UniProt P22303) (P22303 whole entry): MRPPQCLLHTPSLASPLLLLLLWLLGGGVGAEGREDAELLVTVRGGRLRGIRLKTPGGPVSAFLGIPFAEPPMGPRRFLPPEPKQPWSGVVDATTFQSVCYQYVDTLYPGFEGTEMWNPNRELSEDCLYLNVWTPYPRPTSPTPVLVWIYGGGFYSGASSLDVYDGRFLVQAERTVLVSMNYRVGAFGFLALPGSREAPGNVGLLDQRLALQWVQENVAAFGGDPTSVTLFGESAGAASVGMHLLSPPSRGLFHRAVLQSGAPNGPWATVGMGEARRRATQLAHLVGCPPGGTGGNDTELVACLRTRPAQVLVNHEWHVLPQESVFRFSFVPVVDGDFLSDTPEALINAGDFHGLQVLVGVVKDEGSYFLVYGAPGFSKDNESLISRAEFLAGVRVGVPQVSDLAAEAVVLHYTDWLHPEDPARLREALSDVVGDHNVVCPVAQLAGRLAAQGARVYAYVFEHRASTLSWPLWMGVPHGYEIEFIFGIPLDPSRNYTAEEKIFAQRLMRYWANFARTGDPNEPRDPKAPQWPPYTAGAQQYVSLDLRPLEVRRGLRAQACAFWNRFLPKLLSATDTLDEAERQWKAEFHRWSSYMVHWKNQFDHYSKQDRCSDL
Chain of Acetylcholinesterase (Electrophorus electricus) (O42275 24-633 limits assumed): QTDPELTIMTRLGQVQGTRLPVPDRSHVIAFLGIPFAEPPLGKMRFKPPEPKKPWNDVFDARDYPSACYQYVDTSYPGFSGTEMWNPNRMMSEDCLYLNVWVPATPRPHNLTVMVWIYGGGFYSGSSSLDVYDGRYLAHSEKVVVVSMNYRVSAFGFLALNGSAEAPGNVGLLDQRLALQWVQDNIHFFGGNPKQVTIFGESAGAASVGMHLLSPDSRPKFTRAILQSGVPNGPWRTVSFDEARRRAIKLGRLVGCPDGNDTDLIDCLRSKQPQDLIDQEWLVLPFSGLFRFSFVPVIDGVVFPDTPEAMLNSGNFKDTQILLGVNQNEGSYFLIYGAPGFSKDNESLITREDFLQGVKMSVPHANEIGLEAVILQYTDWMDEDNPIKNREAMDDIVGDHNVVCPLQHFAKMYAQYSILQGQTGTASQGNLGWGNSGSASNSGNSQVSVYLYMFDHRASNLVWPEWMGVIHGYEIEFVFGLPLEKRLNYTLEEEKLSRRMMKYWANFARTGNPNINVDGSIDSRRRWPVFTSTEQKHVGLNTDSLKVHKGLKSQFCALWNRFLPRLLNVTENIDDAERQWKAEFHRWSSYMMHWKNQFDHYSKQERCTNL
Chain of Acetylcholinesterase (Electrophorus electricus, UniProt O42275) (O42275 whole entry): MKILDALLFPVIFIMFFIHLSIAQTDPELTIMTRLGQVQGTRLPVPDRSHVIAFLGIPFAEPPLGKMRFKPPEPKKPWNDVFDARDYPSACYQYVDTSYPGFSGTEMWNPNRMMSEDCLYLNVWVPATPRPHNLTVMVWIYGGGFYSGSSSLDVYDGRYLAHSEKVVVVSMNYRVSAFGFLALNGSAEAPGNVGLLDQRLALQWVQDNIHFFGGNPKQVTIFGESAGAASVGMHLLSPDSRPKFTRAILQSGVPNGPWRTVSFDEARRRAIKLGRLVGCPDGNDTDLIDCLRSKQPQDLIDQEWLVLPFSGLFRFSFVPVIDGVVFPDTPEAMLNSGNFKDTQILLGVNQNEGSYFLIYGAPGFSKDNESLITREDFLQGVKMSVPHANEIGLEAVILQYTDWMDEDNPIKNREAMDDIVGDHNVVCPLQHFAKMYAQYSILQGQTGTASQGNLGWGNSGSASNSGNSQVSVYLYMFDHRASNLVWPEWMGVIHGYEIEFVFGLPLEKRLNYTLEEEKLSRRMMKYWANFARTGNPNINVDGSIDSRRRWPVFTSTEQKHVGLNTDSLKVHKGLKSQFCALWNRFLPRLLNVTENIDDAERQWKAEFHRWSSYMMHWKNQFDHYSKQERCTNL
Chain of Cholinesterase (Homo sapiens, UniProt P06276) (P06276 whole entry): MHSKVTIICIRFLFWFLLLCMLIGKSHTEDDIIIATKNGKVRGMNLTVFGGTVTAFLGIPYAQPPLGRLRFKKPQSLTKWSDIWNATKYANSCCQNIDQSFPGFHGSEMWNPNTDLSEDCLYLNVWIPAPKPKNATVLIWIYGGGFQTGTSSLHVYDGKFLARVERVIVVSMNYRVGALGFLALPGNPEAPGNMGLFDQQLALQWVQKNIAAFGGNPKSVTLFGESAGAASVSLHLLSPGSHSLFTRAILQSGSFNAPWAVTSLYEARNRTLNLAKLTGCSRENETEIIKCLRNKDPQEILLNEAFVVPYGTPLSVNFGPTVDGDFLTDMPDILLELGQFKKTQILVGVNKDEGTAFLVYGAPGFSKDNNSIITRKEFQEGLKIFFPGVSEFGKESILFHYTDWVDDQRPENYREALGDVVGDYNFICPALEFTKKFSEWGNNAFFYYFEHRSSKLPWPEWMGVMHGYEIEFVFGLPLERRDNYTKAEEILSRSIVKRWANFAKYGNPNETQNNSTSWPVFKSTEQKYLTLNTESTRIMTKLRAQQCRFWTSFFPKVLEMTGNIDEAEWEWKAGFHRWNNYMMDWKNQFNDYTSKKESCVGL

| Structure (SMILES) | IC50 (Acetylcholinesterase [1]) [µM] | Activity (PC-12) [%] | Ratio IC50 [2] | IC50 (Cholinesterase [3]) [µM] | Ratio IC50 (Homo sapiens [4]) | Ratio IC50 (Homo sapiens [5]) | inhibition [6] [%] | IC50 (Acetylcholinesterase [7]) [µM] | IC50 (Cholinesterase [8]) [µM] | IC50 [9] [µM] | inhibition at 10 µM [10] [%] | Activity [11] [%] | inhibition [12] | Activity [13] [%] | inhibition (INH) [14] | IC50 [15] [µM] | inhibition at 10 µM [16] [%] | Ratio IC50 [17] |
| --- | --- | --- | --- | --- | --- | --- | --- | --- | --- | --- | --- | --- | --- | --- | --- | --- | --- | --- |
| Cc1cc(=O)oc2cc(OCc3cc[n+](Cc4ccccc4Br)cc3)ccc12.[Br-] | 0.0781 | 97.6 | 13.2 | 8.32 | > 2.5 | 106 | 63.7 | 0.0367 | 0.48 | 3.99 | 15.1 |  |  |  |  |  |  |  |
| Cc1cc(=O)oc2cc(OCc3cc[n+](Cc4ccc(Br)cc4)cc3)ccc12.[Br-] | 0.218 | 98.5 | 41.1 |  | > 2.58 | > 41.1 | 67.6 | 0.119 | 4.89 | 3.88 | 29.9 |  |  |  |  |  |  |  |
| Cc1cc(=O)oc2cc(O)ccc12 [HYMECROMONE] |  |  |  |  |  |  |  | > 100 | > 100 |  |  |  |  |  |  |  |  |  |
| Cc1cc(=O)oc2cc(OCc3cc[n+](Cc4cccc([N+](=O)[O-])c4)cc3)ccc12.[Br-] | 0.23 | 98.4 |  |  |  |  | 42.8 | 0.0383 | 4.37 |  |  |  |  |  |  |  |  |  |
| Cc1cc(=O)oc2cc(OCc3cc[n+](Cc4ccccc4F)cc3)ccc12.[Br-] | 0.0653 | 100.8 | 55.6 |  | > 2.37 | > 153 | 53.7 | 0.0295 | 1.64 | 4.21 | 11.5 |  |  |  |  |  |  |  |
| Cc1cccc(C[n+]2ccc(COc3ccc4c(C)cc(=O)oc4c3)cc2)c1.[Br-] | 0.0836 | 101.5 | 62.2 |  | > 6.37 | > 120 | 62.1 | 0.0373 | 2.32 | 1.57 | 14.8 | 47 | Active | 86 | Active |  |  |  |
| Cc1cc(=O)oc2cc(OCc3cc[n+](Cc4ccc(F)cc4)cc3)ccc12.[Br-] | 0.0369 | 94.8 | 101 |  | 0.46 | > 271 | 49.1 | 0.0291 | 2.95 | 10 |  |  |  |  |  | 4.6 |  |  |
| Cc1cc(=O)oc2cc(OCc3cc[n+](Cc4ccccc4)cc3)ccc12.[Br-] | 0.352 | 97.5 | 11.2 |  | 6.92 | > 28.4 | 39.3 | 0.38 | 4.24 |  | 5.04 |  |  |  |  |  | 34.9 |  |
| Cc1ccccc1C[n+]1ccc(COc2ccc3c(C)cc(=O)oc3c2)cc1.[Br-] | 0.0354 | 97.1 | 64.7 |  | > 3.16 | > 282 | 55.2 | 0.0249 | 1.61 | 3.16 | 13.9 |  |  |  |  |  |  | 1.9 |
| Cc1cc(=O)oc2cc(OCc3cc[n+](Cc4ccc([N+](=O)[O-])cc4)cc3)ccc12.[Br-] | 1.08 | 99.5 | > 8.4 |  | > 1.45 | > 9.3 | 37.7 | 1.19 |  | 6.89 | 18.6 |  |  |  |  |  |  |  |
| Cc1cc(=O)oc2cc(OCc3cc[n+](Cc4cccc(F)c4)cc3)ccc12.[Br-] | 0.0416 | 99.6 | 106 |  | > 3.48 | > 240 | 50.8 | 0.0259 | 2.74 | 2.87 | 34.3 |  |  |  |  |  |  | 1.9 |
| Cc1cc(=O)oc2cc(OCc3cc[n+](Cc4cccc(Br)c4)cc3)ccc12.[Br-] | 0.129 | 96.8 | 69.8 |  | > 4.56 | > 77.8 | 62.7 | 0.0632 | 4.41 | 2.19 | 44.6 |  |  |  |  |  |  |  |
| Cc1ccc(C[n+]2ccc(COc3ccc4c(C)cc(=O)oc4c3)cc2)cc1.[Br-] | 0.25 | 99.4 | 56.3 |  | > 2.56 | > 40 | 58.5 | 0.136 | 7.66 | 3.9 | 9.05 |  |  |  |  |  |  |  |
